Measurements reported in ChEMBL document CHEMBL5726115, “Triazolo compounds” (2017).

Target: cAMP and cAMP-inhibited cGMP 3',5'-cyclic phosphodiesterase 10A (Homo sapiens, UniProt Q9Y233)
Assay: Inhibition Assay: The human PDE10A full length assay was performed in 96-well micro titer plates. The reaction mixture of 50 μl contained 20 mM HEPES pH=7.5/10 mM MgCl2/0.05 mg/ml BSA (Sigma cat. #A-7906), 50 nM cGMP (Sigma, cat. #G6129) and 50 nM [3H]-cGMP (GE Healthcare, cat. #TRK392 S.A. 13.2 Ci/mmol), 3.75 ng/well PDE10A enzyme (Enzo Life Science, Lausen, Switzerland cat #SE-534) with or without a specific test compound. A range of concentrations of the potential inhibitor was used to generate data for calculating the concentration of inhibitor resulting in 50% of the effect (e.g. IC50, the concentration of the competitor inhibiting PDE10A activity by 50%). Non-specific activity was tested without the enzyme. The reaction was initiated by the addition of the substrate solution (cGMP and [3H]-cGMP) and allowed to progress for 20 minutes at room temperature. The reaction was terminated by adding 25 μl of YSi-SPA scintillation beads (GE Healthcare, cat. #RPNQ0150) in 18 mM zinc sulphate solution (stop reagent). After 1 h under shaking, the plate was centrifuged one minute at 170 g to allow beads to settle. Afterwards, radioactive counts were measured on a Perkin Elmer TopCount Scintillation plate reader.

cAMP and cAMP-inhibited cGMP 3',5'-cyclic phosphodiesterase 10A, sequence (Q9Y233 whole entry): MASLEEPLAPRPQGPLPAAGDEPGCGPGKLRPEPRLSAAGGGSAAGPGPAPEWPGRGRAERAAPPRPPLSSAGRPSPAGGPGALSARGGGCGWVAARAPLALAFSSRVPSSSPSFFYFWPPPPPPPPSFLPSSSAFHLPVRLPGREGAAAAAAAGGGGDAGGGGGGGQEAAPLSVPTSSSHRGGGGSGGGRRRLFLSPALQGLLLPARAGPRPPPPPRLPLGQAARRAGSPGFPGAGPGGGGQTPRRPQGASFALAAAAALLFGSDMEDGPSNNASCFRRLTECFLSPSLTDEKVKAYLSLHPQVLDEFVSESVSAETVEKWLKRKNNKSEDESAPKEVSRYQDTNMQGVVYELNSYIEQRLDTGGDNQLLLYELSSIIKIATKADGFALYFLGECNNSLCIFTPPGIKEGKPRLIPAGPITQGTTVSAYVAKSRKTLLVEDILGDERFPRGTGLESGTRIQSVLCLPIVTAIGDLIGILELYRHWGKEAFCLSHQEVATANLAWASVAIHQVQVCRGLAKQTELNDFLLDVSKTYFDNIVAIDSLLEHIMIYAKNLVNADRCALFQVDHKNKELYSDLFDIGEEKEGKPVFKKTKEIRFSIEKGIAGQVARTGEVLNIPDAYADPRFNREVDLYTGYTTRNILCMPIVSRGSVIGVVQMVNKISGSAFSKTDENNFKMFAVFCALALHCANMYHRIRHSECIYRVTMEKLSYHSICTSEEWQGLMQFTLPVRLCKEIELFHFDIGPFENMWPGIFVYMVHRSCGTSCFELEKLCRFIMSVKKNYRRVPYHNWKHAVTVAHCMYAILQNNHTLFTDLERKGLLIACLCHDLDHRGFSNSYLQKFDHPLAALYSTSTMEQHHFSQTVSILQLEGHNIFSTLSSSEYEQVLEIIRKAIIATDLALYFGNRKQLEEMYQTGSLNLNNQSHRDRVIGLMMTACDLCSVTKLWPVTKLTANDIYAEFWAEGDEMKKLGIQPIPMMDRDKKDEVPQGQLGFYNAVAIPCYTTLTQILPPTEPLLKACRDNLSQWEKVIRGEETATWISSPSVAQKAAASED

| IC50 | SMILES |
| --- | --- |
| 0.165 µM | Cc1nc2cc(C(F)(F)F)c(CCc3nc(N4CCCC4)nn3C)nn2c1C |
| 0.0066 µM | Cc1cn2nc(C)c(C)c2nc1C#Cc1nc(N2CCCC2)nn1C |
